Experimental findings from PubChem BioAssay (NCI) are described below.

Among the test systems are CCRF-CEM leukemia; TK-10 renal; NCI-H460 lung; DU-145 prostate; CAKI-1 renal; HCT-15 colon; NCI/ADR-RES ovarian; OVCAR-5 ovarian; HOP-92 NSCLC; SK-OV-3 ovarian; OVCAR-8 ovarian; A498 renal; COLO 205 colon; U251 CNS; HL-60(TB) leukemia; K-562 leukemia; HT29 colon; HCC-2998 colon.
Common to all, as to test: NCI anticancer screen, dose series, 48 h

“And” between values parts separate entries of the source, which are not always exact repeats. Equal entries are not always repeated.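 A five-concentration, 48-hour dose response in 96-well plates underlies each endpoint, interpolated linearly between surrounding concentrations. GI50 = concentration required for 50% inhibition of growth. TGI marks complete inhibition of growth.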

`CCCN(CCC)c1cc2c(cc1F)c(=O)c(C(=O)O)cn2-c1ccc(N2CCN(C)CC2)cn1`: the TGI with CCRF-CEM leukemia is 36.7 µM; in the assay with TK-10 renal, 23.1 µM; with NCI-H460 lung it was 36.5 µM; in the assay on DU-145 prostate, 45.3 µM; with CAKI-1 renal, 32.5 µM; in the assay with HCT-15 colon, > 100 µM. In addition, the TGI in the assay on NCI/ADR-RES ovarian turned out to be 35.9 µM; in the assay with OVCAR-5 ovarian it was 41.3 µM; in the assay on HOP-92 NSCLC it was 28.7 µM; in the assay with SK-OV-3 ovarian, 28.5 µM; in the assay on OVCAR-8 ovarian, 27.3 µM; in the assay on A498 renal, 49.2 µM. Besides, the TGI with COLO 205 colon was 27.1 µM; in the assay on U251 CNS, > 100 µM; in the assay with HL-60(TB) leukemia, 26.1 µM; in the assay on K-562 leukemia, 55.1 µM; in the assay on HT29 colon, 30.5 µM.
As for `CC(C)c1c(O[Si](C(C)C)(C(C)C)C(C)C)c2c3c(ccc4c3c1OC4(C)C)C(C)CC2` (stereo unspecified), the TGI with CCRF-CEM leukemia, with TK-10 renal, with NCI-H460 lung, in the assay on DU-145 prostate, with CAKI-1 renal and in the assay with HCT-15 colon was > 100 µM throughout. For the same molecule, the TGI in the assay with NCI/ADR-RES ovarian, in the assay on OVCAR-5 ovarian, in the assay on HOP-92 NSCLC, with SK-OV-3 ovarian, in the assay on OVCAR-8 ovarian and with A498 renal was > 100 µM throughout. Moreover, the TGI in the assay with COLO 205 colon, with U251 CNS, with HL-60(TB) leukemia, with K-562 leukemia and in the assay with HT29 colon was > 100 µM throughout.
As for `COc1ccc(OC)c(C#Cc2ccc(OC)c(C(=O)NCCc3ccc(F)cc3)c2)c1`, the GI50 is 4.72 µM with CCRF-CEM leukemia and > 100 µM with DU-145 prostate. The TGI in the assay on CCRF-CEM leukemia was > 100 µM; with TK-10 renal it was > 100 µM; with NCI-H460 lung, > 100 µM; in the assay on DU-145 prostate, > 100 µM; in the assay with CAKI-1 renal, > 100 µM; with HCC-2998 colon, 7.73 µM. The TGI in the assay on HCT-15 colon, with NCI/ADR-RES ovarian, with OVCAR-5 ovarian, in the assay on OVCAR-8 ovarian, in the assay with A498 renal and with COLO 205 colon was > 100 µM in each case. In addition, the TGI in the assay with U251 CNS, in the assay on HL-60(TB) leukemia, in the assay with K-562 leukemia and in the assay with HT29 colon was > 100 µM each time.
`Cc1ccc(CC2(OCCN(C)C)CCC(C(C)(C)C)CC2)cc1` (stereo unspecified): the TGI with CCRF-CEM leukemia is 7.46 µM and 7.98 µM; in the assay with TK-10 renal, 17.2 µM and 19.6 µM; with NCI-H460 lung, 3.71 µM and 3.57 µM; in the assay on DU-145 prostate, 15.1 µM and 17.1 µM; in the assay on CAKI-1 renal it was 17.7 µM and 15.3 µM; with HCC-2998 colon it was 4.26 µM and 4.73 µM. Besides, the TGI in the assay on HCT-15 colon is 14.9 µM and 15.4 µM; with NCI/ADR-RES ovarian, 21.5 µM and 22.3 µM; in the assay on OVCAR-5 ovarian, 14 µM and 13.9 µM; with SK-OV-3 ovarian, 20.9 µM and 23.6 µM; in the assay with OVCAR-8 ovarian, 16.1 µM and 24.1 µM; in the assay with A498 renal, 28.6 µM and 27.1 µM. Further, the TGI in the assay on COLO 205 colon was 3.98 µM and 3 µM; in the assay on U251 CNS it was 6.39 µM and 10.2 µM; with HL-60(TB) leukemia it was 6.24 µM and 5.02 µM; in the assay with K-562 leukemia it was 3.97 µM and 4.45 µM; with HT29 colon, 5.15 µM and 5.9 µM.
For the molecule `COc1ccc2oc(=O)c3c(c2c1C)OC(C)(C)C=C3`, the TGI in the assay on CCRF-CEM leukemia, in the assay on TK-10 renal, in the assay with NCI-H460 lung, with DU-145 prostate, with CAKI-1 renal and in the assay on HCC-2998 colon was > 100 µM throughout. For the same molecule, the TGI in the assay with HCT-15 colon, with NCI/ADR-RES ovarian, in the assay with OVCAR-5 ovarian, in the assay with SK-OV-3 ovarian, in the assay on OVCAR-8 ovarian and in the assay on A498 renal was > 100 µM each time. The TGI with COLO 205 colon, in the assay on U251 CNS, in the assay on HL-60(TB) leukemia, with K-562 leukemia and in the assay on HT29 colon was > 100 µM throughout.
On to `Nc1nc(Cl)cc(NCC2(CO)CCC(O)C2)n1` (stereo unspecified), for which the TGI in the assay with CCRF-CEM leukemia, in the assay with TK-10 renal, in the assay with NCI-H460 lung, in the assay with DU-145 prostate, in the assay on CAKI-1 renal and in the assay with HCT-15 colon was > 100 µM in each case. The TGI with NCI/ADR-RES ovarian, with OVCAR-5 ovarian, in the assay on HOP-92 NSCLC, in the assay with SK-OV-3 ovarian, in the assay on OVCAR-8 ovarian and in the assay with A498 renal was > 100 µM throughout. Moreover, the TGI in the assay on COLO 205 colon, in the assay with U251 CNS, in the assay on HL-60(TB) leukemia, in the assay with K-562 leukemia and in the assay with HT29 colon was > 100 µM each time.
Regarding `CC1=C(C#N)C2C(=C(N)Oc3ccccc32)C(N)=N1` (stereo unspecified), the TGI in the assay with CCRF-CEM leukemia was > 100 µM; in the assay on TK-10 renal it was 47.5 µM; with DU-145 prostate it was 60.9 µM; in the assay on CAKI-1 renal it was 53.9 µM; in the assay on HCC-2998 colon, 69.8 µM; in the assay on HCT-15 colon, 41.4 µM. The TGI in the assay on NCI/ADR-RES ovarian was 45.6 µM; in the assay with OVCAR-5 ovarian, 91.6 µM; in the assay with SK-OV-3 ovarian it was > 100 µM; in the assay with OVCAR-8 ovarian it was 56.8 µM; in the assay with A498 renal, 74.2 µM; in the assay on COLO 205 colon, 67 µM. The TGI in the assay on U251 CNS was > 100 µM; in the assay on HL-60(TB) leukemia it was > 100 µM; with K-562 leukemia it was 90.8 µM; in the assay with HT29 colon it was 87.7 µM.
For the molecule `COCOCC1CCCN1CN1CCC[C@H]1COCOC` (stereo partly specified), the TGI with CCRF-CEM leukemia, with TK-10 renal, in the assay on NCI-H460 lung, with DU-145 prostate, in the assay with CAKI-1 renal and in the assay with HCT-15 colon was > 100 µM each time. The TGI in the assay on NCI/ADR-RES ovarian, with OVCAR-5 ovarian, in the assay with HOP-92 NSCLC, in the assay on SK-OV-3 ovarian, in the assay with OVCAR-8 ovarian and in the assay on A498 renal was > 100 µM each time. Moreover, the TGI in the assay with COLO 205 colon is > 100 µM; in the assay on U251 CNS, > 100 µM; with HL-60(TB) leukemia, 61.3 µM; in the assay on K-562 leukemia, > 100 µM; with HT29 colon, > 100 µM.
